Reference: patent US20260151347A1, “CELL-DERIVED MICROPARTICLE DELIVERY SYSTEM AND USES THEREOF” (priority 2021, published 2026)

Tested on: 4T1-luc2 cells
Test: In vitro validation of released drug efficacy
Format: cell-based
Details: after 4 hours, free drug dose equals cumulative cisplatin release at 4 hours
Text: Additional controls include unloaded MPs and untreated cells. […] As shown in these experiments, the local release of high levels of payload may result in a stark increase in efficiency for the treatment of diseased cells.

Question: How did the “cell death as compared to control” value turn out when `N.N.[Cl][Pt][Cl]` [Cisplatin] was run?
Answer: little to no cell death
